The values that follow come from patent US20260007681A1, “INDOLE DERIVATIVES AS ESTROGEN RECEPTOR DEGRADERS” (REGENTS OF THE UNIVERSITY OF MICHIGAN, priority 2022, published 2026).

Experiment [1] has as its target ER in MCF-7 cells (Homo sapiens (Human), UniProt P03372). Briefly: In-cell western (ICW) ER degradation assay in MCF-7 cells (Compounds A1-A70). The format is cell-based. Particulars: for DC50: ER degradation, 0.02 to 300 nM, read-out: MCF7 ICW DC50.
Experiment [2] concerns the target ER in T47D cells (Homo sapiens (Human), UniProt P03372). Briefly: In-cell western (ICW) ER degradation assay in T47D cells (Compounds A1-A70). Type of experiment: cell-based. Particulars: for DC50: ER degradation, 0.02 to 300 nM; for Dmax: T47D, read-out: T47D ICW Dmax (%).
For experiment [3], the target named is CRBN/DDB1 (Homo sapiens (Human), UniProt Q96SW2). The format is binding. The procedure: The binding potency was determined using H-TRF assay technology (Perkin Elmer). Compounds were serially diluted in DMSO and 0.2 μL volume was transferred to white 384-well plate.
The mark [4] stands for this setting: MCF7, maximal ER degradation, MCF-7 cells, 16 hrs treatment, read-out: MCF7 ICW Dmax (%).
Where [5] appears, read: maximal ER degradation, T47D cells, 16 hrs treatment.
[6] abbreviates: His tagged CRBN+DDB-DLS7+CXU4, Cy5-labeled Thalidomide probe, one hour incubation, read-out: CRBN HTRF IC50.
Setting [7] is: MCF7, read-out: MCF7 ICW Dmax (%).

Structures can show the parent of a compound that is named as a salt. Where two headings read alike, the source gives them in different places.

ER in T47D cells, sequence (P03372 whole entry): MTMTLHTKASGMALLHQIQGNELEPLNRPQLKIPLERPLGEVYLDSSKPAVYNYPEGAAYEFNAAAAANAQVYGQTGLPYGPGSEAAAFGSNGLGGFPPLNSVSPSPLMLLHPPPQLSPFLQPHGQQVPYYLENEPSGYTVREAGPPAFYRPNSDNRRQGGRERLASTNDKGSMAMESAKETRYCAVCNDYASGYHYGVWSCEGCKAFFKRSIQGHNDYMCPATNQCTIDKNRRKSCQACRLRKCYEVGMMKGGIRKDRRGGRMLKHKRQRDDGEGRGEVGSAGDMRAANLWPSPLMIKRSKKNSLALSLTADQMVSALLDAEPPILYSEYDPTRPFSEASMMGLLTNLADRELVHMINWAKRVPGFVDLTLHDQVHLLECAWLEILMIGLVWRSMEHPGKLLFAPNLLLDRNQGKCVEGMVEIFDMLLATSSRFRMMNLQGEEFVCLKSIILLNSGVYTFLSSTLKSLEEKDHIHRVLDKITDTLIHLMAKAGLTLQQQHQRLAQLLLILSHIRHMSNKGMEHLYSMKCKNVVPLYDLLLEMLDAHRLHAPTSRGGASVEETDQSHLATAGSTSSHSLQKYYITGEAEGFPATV
ER in MCF-7 cells, sequence (P03372 whole entry): as above

Consider `COc1cc(N2CCC(CN3CCN4c5cc6c(cc5OC[C@@H]4C3)C(=O)N([C@@H]3CCC(=O)NC3=O)C6)CC2)ccc1[C@H]1c2[nH]c3ccccc3c2C[C@H](C)N1CC(F)F` [Compound A44, (R)-3-((S)-3-((1-(4-((1S,3S)-2-(2,2-difluoroethyl)-3-methyl-2,3,4,9-tetrahydro-1H-pyrido[3,4-b]indol-1-yl)-3-methoxyphenyl)piperidin-4-yl)methyl)-8-oxo-1,2,3,4,4a,5,8,10-octahydro-9H-pyrazino[1′,2′:4,5][1,4]oxazino[2,3-f]isoindol-9-yl)piperidine-2,6-dione], for which the DC50 (usually the concentration at which degradation of the target reaches its halfway point) in experiment [1] (MCF-7 cells, 16 hrs treatment) was below 1 nM; in experiment [2] (T47D cells, 16 hrs treatment), below 1 nM. Further, the Dmax in experiment [1] (setting [4]) and in experiment [2] (setting [5]) was 50 to 75% each time. Moreover, the IC50 (usually the concentration at which inhibition is half-maximal) in experiment [3] (setting [6]) fell in the range of 50 to 500 nM.

Regarding `COc1cc(N2CCC3(CCN(C(=O)CN4Cc5cnc(C(=O)N[C@H]6CCC(=O)NC6=O)cc5C4)CC3)CC2)ccc1[C@@H]1c2[nH]c3ccccc3c2C[C@@H](C)N1CC(F)F` [Compound A50, 2-(2-(9-(4-((1R,3R)-2-(2,2-difluoroethyl)-3-methyl-2,3,4,9-tetrahydro-1H-pyrido[3,4-b]indol-1-yl)-3-methoxyphenyl)-3,9-diazaspiro[5.5]undecan-3-yl)-2-oxoethyl)-N—((S)-2,6-dioxopiperidin-3-yl)-2,3-dihydro-1H-pyrrolo[3,4-c]pyridine-6-carboxamide formate], the Dmax in experiment [1] (setting [7]) and in experiment [2] was 50 to 75% throughout. Moreover, in experiment [3], the half-maximal inhibitory concentration (IC50) fell in the range of 500 to 5000 nM.

Take `COc1cc(N2CCC(CN3CCN4c5ccc(C(=O)NC6CCC(=O)NC6=O)nc5OC[C@H]4C3)CC2)ccc1[C@@H]1c2[nH]c3ccccc3c2C[C@@H](C)N1CC(F)F` (stereo partly drawn) [Compound A51, (4aR)-3-((1-(4-((1R,3R)-2-(2,2-difluoroethyl)-3-methyl-2,3,4,9-tetrahydro-1H-pyrido[3,4-b]indol-1-yl)-3-methoxyphenyl)piperidin-4-yl)methyl)-N-(2,6-dioxopiperidin-3-yl)-1,2,3,4,4a,5-hexahydropyrazino[1,2-d]pyrido[2,3-b][1,4]oxazine-8-carboxamide formate]: the DC50 was below 1 nM in experiment [1] (MCF-7 cells, 16 hrs treatment) and below 1 nM in experiment [2] (T47D cells, 16 hrs treatment). Besides, the Dmax in experiment [1] (setting [7]) and in experiment [2] (setting [5]) was above 75% throughout. Also, the IC50 in experiment [3] (setting [6]) lay within 500 to 5000 nM.

`COc1cc(N2CCC(CN3CCN(c4ccc(C(=O)NC5CCC(=O)NC5=O)nc4OC)CC3)CC2)ccc1[C@@H]1c2[nH]c3ccccc3c2C[C@@H](C)N1CC(F)F` (stereo partly drawn) [Compound A52, 5-(4-((1-(4-((1R,3R)-2-(2,2-difluoroethyl)-3-methyl-2,3,4,9-tetrahydro-1H-pyrido[3,4-b]indol-1-yl)-3-methoxyphenyl)piperidin-4-yl)methyl)piperazin-1-yl)-N-(2,6-dioxopiperidin-3-yl)-6-methoxypicolinamide]: the DC50 in experiment [1] (MCF-7 cells, 16 hrs treatment) is below 1 nM; in experiment [2] (T47D cells, 16 hrs treatment) it was 1 to 10 nM. Besides, the Dmax in experiment [1] (setting [4]) and in experiment [2] (setting [5]) was 25 to 50% throughout. Also, the IC50 in experiment [3] (setting [6]) was above 5000 nM.

On to `COc1cc(N2CCC(CN3CCC(c4ccc(C(=O)NC5CCC(=O)NC5=O)nc4)CC3)CC2)ccc1[C@@H]1c2[nH]c3ccccc3c2C[C@@H](C)N1CC(F)F` (stereo partly drawn) [Compound A53, 5-(1-((1-(4-((1R,3R)-2-(2,2-difluoroethyl)-3-methyl-2,3,4,9-tetrahydro-1H-pyrido[3,4-b]indol-1-yl)-3-methoxyphenyl)piperidin-4-yl)methyl)piperidin-4-yl)-N-(2,6-dioxopiperidin-3-yl)picolinamide], for which the DC50 was below 1 nM in experiment [1] (MCF-7 cells, 16 hrs treatment) and above 100 nM in experiment [2] (T47D cells, 16 hrs treatment). Moreover, the Dmax (in general, the greatest extent of degradation seen) in experiment [1] (setting [4]) is 25 to 50%; in experiment [2] (setting [5]) it was below 25%. Besides, the concentration for half-maximal inhibition (IC50) in experiment [3] (setting [6]) is 500 to 5000 nM.

Take `COc1cc(N2CCC(CN3CCN4c5ccc(C(=O)NC6CCC(=O)NC6=O)nc5OC[C@H]4C3)CC2)ccc1[C@H]1c2[nH]c3ccccc3c2C[C@H](C)N1CC(F)F` (stereo partly drawn) [Compound A54, (4aR)-3-((1-(4-((1S,3S)-2-(2,2-difluoroethyl)-3-methyl-2,3,4,9-tetrahydro-1H-pyrido[3,4-b]indol-1-yl)-3-methoxyphenyl)piperidin-4-yl)methyl)-N-(2,6-dioxopiperidin-3-yl)-1,2,3,4,4a,5-hexahydropyrazino[1,2-d]pyrido[2,3-b][1,4]oxazine-8-carboxamide]: the DC50 is below 1 nM in experiment [1] (MCF-7 cells, 16 hrs treatment) and below 1 nM in experiment [2] (T47D cells, 16 hrs treatment). Further, the maximal degradation (Dmax) in experiment [1] (setting [4]) and in experiment [2] (setting [5]) was 50 to 75% in each case. For the same compound, the IC50 in experiment [3] (setting [6]) lay in the range of 500 to 5000 nM.

For `COc1cc(N2CCC(CN3CCN(c4ccc(C(=O)N[C@@H]5CCC(=O)NC5=O)nc4)CC3)CC2)ccc1[C@@H]1c2[nH]c3ccccc3c2C[C@@H](C)N1CC(F)F` [Compound A57, 5-(4-((1-(4-((1R,3R)-2-(2,2-difluoroethyl)-3-methyl-2,3,4,9-tetrahydro-1H-pyrido[3,4-b]indol-1-yl)-3-methoxyphenyl)piperidin-4-yl)methyl)piperazin-1-yl)-N-((R)-2,6-dioxopiperidin-3-yl)picolinamide formate], the DC50 is below 1 nM in experiment [1] (MCF-7 cells, 16 hrs treatment) and below 1 nM in experiment [2] (T47D cells, 16 hrs treatment). Further, the greatest degradation seen (Dmax) in experiment [1] (setting [4]) lay in the range of 50 to 75%; in experiment [2] (setting [5]) it was 25 to 50%. In experiment [3] (setting [6]), the concentration for half-maximal inhibition (IC50) was below 50 nM.

Regarding `C[C@H]1Cc2c([nH]c3ccccc23)[C@H](c2cnc(N3CCC4(CC3)C[C@H](CN3CCN5c6ccc7c(c6OC[C@@H]5C3)CN([C@@H]3CCC(=O)NC3=O)C7=O)CO4)nc2)N1CC(F)F` [Compound A58, (R)-3-((S)-7-(((R)-8-(5-((1S,3S)-2-(2,2-difluoroethyl)-3-methyl-2,3,4,9-tetrahydro-1H-pyrido[3,4-b]indol-1-yl)pyrimidin-2-yl)-1-oxa-8-azaspiro[4.5]decan-3-yl)methyl)-1-oxo-1,3,5,5a,6,7,8,9-octahydro-2H-pyrazino[1′,2′:4,5][1,4]oxazino[2,3-e]isoindol-2-yl)piperidine-2,6-dione], the DC50 was below 1 nM in experiment [1] (MCF-7 cells, 16 hrs treatment) and below 1 nM in experiment [2] (T47D cells, 16 hrs treatment). For the same compound, the maximal degradation (Dmax) in experiment [1] (setting [4]) and in experiment [2] (setting [5]) was 50 to 75% throughout. The 50% inhibitory concentration (IC50) in experiment [3] (setting [6]) lay in the range of 50 to 500 nM.

`C[C@H]1Cc2c([nH]c3ccccc23)[C@H](c2cnc(N3CCC4(CC3)C[C@H](CN3CCN5c6cc7c(cc6OC[C@H]5C3)C(=O)N([C@@H]3CCC(=O)NC3=O)C7)CO4)nc2)N1CC(F)F` [Compound A60, (R)-3-((R)-3-(((R)-8-(5-((1S,3S)-2-(2,2-difluoroethyl)-3-methyl-2,3,4,9-tetrahydro-1H-pyrido[3,4-b]indol-1-yl)pyrimidin-2-yl)-1-oxa-8-azaspiro[4.5]decan-3-yl)methyl)-8-oxo-1,2,3,4,4a,5,8,10-octahydro-9H-pyrazino[1′,2′:4,5][1,4]oxazino[2,3-f]isoindol-9-yl)piperidine-2,6-dione]: the DC50 in experiment [1] (MCF-7 cells, 16 hrs treatment) is below 1 nM; in experiment [2] (T47D cells, 16 hrs treatment), below 1 nM. Also, the Dmax in experiment [1] (setting [4]) and in experiment [2] (setting [5]) was 50 to 75% in each case. The IC50 in experiment [3] (setting [6]) lay in the range of 500 to 5000 nM.

For the compound `C[C@H]1Cc2c([nH]c3ccccc23)[C@H](c2ccc(N3CCC(CN4CCN5c6ccc7c(c6OC[C@@H]5C4)CN([C@@H]4CCC(=O)NC4=O)C7=O)CC3)cn2)N1CC(F)(F)F` [Compound A62, (R)-3-((S)-7-((1-(6-((1R,3S)-3-methyl-2-(2,2,2-trifluoroethyl)-2,3,4,9-tetrahydro-1H-pyrido[3,4-b]indol-1-yl)pyridin-3-yl)piperidin-4-yl)methyl)-1-oxo-1,3,5,5a,6,7,8,9-octahydro-2H-pyrazino[1′,2′:4,5][1,4]oxazino[2,3-e]isoindol-2-yl)piperidine-2,6-dione], the DC50 was in the range of 10 to 100 nM in experiment [1] (MCF-7 cells, 16 hrs treatment) and 10 to 100 nM in experiment [2] (T47D cells, 16 hrs treatment). For the same compound, the Dmax in experiment [1] (setting [4]) and in experiment [2] (setting [5]) was 25 to 50% in each case. The half-inhibitory concentration (IC50) in experiment [3] (setting [6]) is 500 to 5000 nM.

As to `C[C@H]1Cc2c([nH]c3ccccc23)[C@H](c2ccc(N3CCC(CN4CCN5c6cc7c(cc6OC[C@H]5C4)C(=O)N([C@@H]4CCC(=O)NC4=O)C7)CC3)cn2)N1CC(F)(F)F` [Compound A64, (R)-3-((R)-3-((1-(6-((1R,3S)-3-methyl-2-(2,2,2-trifluoroethyl)-2,3,4,9-tetrahydro-1H-pyrido[3,4-b]indol-1-yl)pyridin-3-yl)piperidin-4-yl)methyl)-8-oxo-1,2,3,4,4a,5,8,10-octahydro-9H-pyrazino[1′,2′:4,5][1,4]oxazino[2,3-f]isoindol-9-yl)piperidine-2,6-dione], the half-maximal degradation concentration (DC50) in experiment [1] (MCF-7 cells, 16 hrs treatment) is above 100 nM; in experiment [2] (T47D cells, 16 hrs treatment) it was above 100 nM. Further, the maximal degradation (Dmax) in experiment [1] (setting [4]) and in experiment [2] (setting [5]) was below 25% throughout. In addition, the IC50 in experiment [3] (setting [6]) was in the range of 500 to 5000 nM.

Regarding `C[C@@H]1Cc2c([nH]c3ccccc23)[C@H](c2cnc(N3CCC4(CC3)C[C@@H](CN3CCN5c6ccc(C(=O)N[C@H]7CCC(=O)NC7=O)nc6OC[C@H]5C3)CO4)nc2)N1CC(F)F` [Compound A65, (R)-3-(((S)-8-(5-((1S,3R)-2-(2,2-difluoroethyl)-3-methyl-2,3,4,9-tetrahydro-1H-pyrido[3,4-b]indol-1-yl)pyrimidin-2-yl)-1-oxa-8-azaspiro[4.5]decan-3-yl)methyl)-N-((S)-2,6-dioxopiperidin-3-yl)-1,2,3,4,4a,5-hexahydropyrazino[1,2-d]pyrido[2,3-b][1,4]oxazine-8-carboxamide], the DC50 in experiment [1] (MCF-7 cells, 16 hrs treatment) was 1 to 10 nM; in experiment [2] (T47D cells, 16 hrs treatment), 1 to 10 nM. Further, the Dmax in experiment [1] (setting [4]) and in experiment [2] (setting [5]) was 50 to 75% in each case. Moreover, the IC50 in experiment [3] (setting [6]) was in the range of 50 to 500 nM.
